Test results from ChEMBL document CHEMBL1123684, “Synthesis and biological properties of 9-(trans-4-hydroxy-2-buten-1-yl)adenine and guanine: open-chain analogues of neplanocin A” (1987).
The source made the active and inactive calls. The rule behind the calls is not given here.

Tests used:
Human alphaherpesvirus 2 = assay: Antiviral activity against herpes simplex virus 2 (HSV 2); Inactive; format: functional, organism-based
Human alphaherpesvirus 1 = assay: Antiviral activity against herpes simplex virus-1 (HSV 1); Inactive; format: functional, organism-based
L1210 [1] = assay: Percent inhibition of growth of murine leukemia L1210 cell culture at 1 mM was determined.; format: functional; settings: Mus musculus
[2] = test system: Vesicular stomatitis virus; assay: Antiviral activity against vesicular stomatis virus (VSV); Inactive; format: functional, organism-based
L1210 [3] = assay: Apparent inhibition of incorporation of labeled thymidine into DNA in murine leukemia L1210 cell;No inhibition; format: functional, cell-based; settings: Mus musculus

| Compound | Activity (Human alphaherpesvirus 2) | Activity (Human alphaherpesvirus 1) | inhibition at 1000 µM (L1210 [1]) [%] | Activity [2] | Activity (L1210 [3]) |
| --- | --- | --- | --- | --- | --- |
| Nc1ncnc2c1ncn2[C@@H]1C=C(CO)[C@@H](O)[C@H]1O [NEOPLANOCIN A] | inactive | inactive | 50 | inactive | – |
| Nc1ccn([C@@H]2O[C@H](CO)[C@@H](O)[C@@H]2O)c(=O)n1 | – | – | – | – | inactive |
| Nc1nc(O)c2ncn([C@@H]3C=C(CO)[C@@H](O)[C@H]3O)c2n1 | inactive | inactive | 50 | inactive | – |
